This note sets out measurements from patent US7855166B2, “Sulfonylamino(thio)carbonyl compounds” (Bayer Cropscience GmbH, priority 2005, dated 2010).

Experiment [1] relates to weed plants such as Sinapis alba, Chrysanthemum segetum, Avena sativa, Stellaria media, Echinochloa crus-galli, Lolium multiflorum, Setaria viridis, Abutilon …. The experiment in a line: Pre-emergence effect on weeds (greenhouse pot test, visual scoring). The format is in vivo. The settings on record: applied pre-emergence at a rate of 0.3 kg or less of active substance per hectare; scored after 3 to 4 weeks in comparison to untreated controls.

Experiment [2] relates to weed plants such as Sinapis alba, Echinochloa crus-galli, Lolium multiflorum, Chrysanthemum segetum, Setaria viridis, Abutilon theophrasti, Amaranthus …. The experiment in a line: Post-emergence effect on weeds (greenhouse pot test, visual scoring). Format: in vivo. The settings on record: applied post-emergence (three-leaf stage) at a rate of 0.3 kg or less of active substance per hectare; scored after about 3 to 4 weeks in comparison to untreated controls.

Structures are written as SMILES.

In the case of `COc1nn(C(=O)NS(=O)(=O)c2ccc(F)cc2I)c(=O)n1C` [Compound 1.823], in experiment [1], the “herbicidal action against weed plants (visual scoring of plant damage or emergence damage)” value was “very good herbidical action”. Moreover, the “herbicidal action against weed plants (effect scored visually)” value in experiment [2] is “very good herbicidal action”.
For `CCCOc1nn(C(=O)NS(=O)(=O)c2ccc(F)cc2I)c(=O)n1C` [Compound 1.824], the “herbicidal action against weed plants (visual scoring of plant damage or emergence damage)” value in experiment [1] is listed as “very good herbidical action”. For the same compound, the “herbicidal action against weed plants (effect scored visually)” value in experiment [2] is reported as “very good herbicidal action”.
`COc1nn(C(=O)NS(=O)(=O)c2ccc(F)cc2I)c(=O)n1C1CC1` [Compound 1.825]: the “herbicidal action against weed plants (visual scoring of plant damage or emergence damage)” value in experiment [1] is on record as “very good herbidical action”. Besides, the “herbicidal action against weed plants (effect scored visually)” value in experiment [2] is “very good herbicidal action”.
For `CCCOc1nn(C(=O)NS(=O)(=O)c2ccc(F)cc2I)c(=O)n1C1CC1` [Compound 1.827], the “herbicidal action against weed plants (visual scoring of plant damage or emergence damage)” value in experiment [1] is “very good herbidical action”. For the same compound, in experiment [2], the “herbicidal action against weed plants (effect scored visually)” value was “very good herbicidal action”.
For the compound `COc1nn(C(=O)NS(=O)(=O)c2cccc(Cl)c2I)c(=O)n1C` [Compound 1.828], the “herbicidal action against weed plants (visual scoring of plant damage or emergence damage)” value in experiment [1] is recorded as “very good herbidical action”. In addition, the “herbicidal action against weed plants (effect scored visually)” value in experiment [2] was “very good herbicidal action”.
Regarding `CCOc1nn(C(=O)NS(=O)(=O)c2cccc(Cl)c2I)c(=O)n1C` [Compound 1.829], in experiment [1], the “herbicidal action against weed plants (visual scoring of plant damage or emergence damage)” value is recorded as “very good herbidical action”. The “herbicidal action against weed plants (effect scored visually)” value in experiment [2] was “very good herbicidal action”.
In the same order, the values of `CCCOc1nn(C(=O)NS(=O)(=O)c2cccc(Cl)c2I)c(=O)n1C` [Compound 1.830] are “very good herbidical action” and “very good herbicidal action”.
`CC(C)Oc1nn(C(=O)NS(=O)(=O)c2cccc(Cl)c2I)c(=O)n1C` [Compound 1.831]: in experiment [1], the “herbicidal action against weed plants (visual scoring of plant damage or emergence damage)” value was “very good herbidical action”. In experiment [2], the “herbicidal action against weed plants (effect scored visually)” value is listed as “very good herbicidal action”.
For `COc1nn(C(=O)NS(=O)(=O)c2cccc(Cl)c2I)c(=O)n1C1CC1` [Compound 1.832], the “herbicidal action against weed plants (visual scoring of plant damage or emergence damage)” value in experiment [1] is reported as “very good herbidical action”. In addition, in experiment [2], the “herbicidal action against weed plants (effect scored visually)” value is given as “very good herbicidal action”.
In the same order, the values of `CCOc1nn(C(=O)NS(=O)(=O)c2cccc(Cl)c2I)c(=O)n1C1CC1` [Compound 1.833] are “very good herbidical action” and “very good herbicidal action”.
On the same counts, the results for `CCCOc1nn(C(=O)NS(=O)(=O)c2cccc(Cl)c2I)c(=O)n1C1CC1` [Compound 1.834] are “very good herbidical action” and “very good herbicidal action”.
In the same order, the values of `COc1nn(C(=O)NS(=O)(=O)c2cc(C(F)(F)F)ccc2I)c(=O)n1C` [Compound 1.835] are “very good herbidical action” and “very good herbicidal action”.
Take `CCOc1nn(C(=O)NS(=O)(=O)c2cc(C(F)(F)F)ccc2I)c(=O)n1C` [Compound 1.836]: in experiment [1], the “herbicidal action against weed plants (visual scoring of plant damage or emergence damage)” value is recorded as “very good herbidical action”. The “herbicidal action against weed plants (effect scored visually)” value in experiment [2] was “very good herbicidal action”.
On the same counts, the results for `CCCOc1nn(C(=O)NS(=O)(=O)c2cc(C(F)(F)F)ccc2I)c(=O)n1C` [Compound 1.837] are “very good herbidical action” and “very good herbicidal action”.
In the case of `CC(C)Oc1nn(C(=O)NS(=O)(=O)c2cc(C(F)(F)F)ccc2I)c(=O)n1C` [Compound 1.838], the “herbicidal action against weed plants (visual scoring of plant damage or emergence damage)” value in experiment [1] is given as “very good herbidical action”. The “herbicidal action against weed plants (effect scored visually)” value in experiment [2] is recorded as “very good herbicidal action”.
On the same counts, the results for `COc1nn(C(=O)NS(=O)(=O)c2cc(C(F)(F)F)ccc2I)c(=O)n1C1CC1` [Compound 1.839] are “very good herbidical action” and “very good herbicidal action”.
With `CCOc1nn(C(=O)NS(=O)(=O)c2cc(C(F)(F)F)ccc2I)c(=O)n1C1CC1` [Compound 1.840], the “herbicidal action against weed plants (visual scoring of plant damage or emergence damage)” value in experiment [1] was “very good herbidical action”. Further, the “herbicidal action against weed plants (effect scored visually)” value in experiment [2] is “very good herbicidal action”.
In the same order, the values of `CCCOc1nn(C(=O)NS(=O)(=O)c2cc(C(F)(F)F)ccc2I)c(=O)n1C1CC1` [Compound 1.841] are “very good herbidical action” and “very good herbicidal action”.
As for `COc1nn(C(=O)NS(=O)(=O)c2c(Cl)cc(C(F)(F)F)cc2I)c(=O)n1C` [Compound 1.842], the “herbicidal action against weed plants (visual scoring of plant damage or emergence damage)” value in experiment [1] is “very good herbidical action”. Moreover, the “herbicidal action against weed plants (effect scored visually)” value in experiment [2] is given as “very good herbicidal action”.
In the same order, the values of `CCOc1nn(C(=O)NS(=O)(=O)c2c(Cl)cc(C(F)(F)F)cc2I)c(=O)n1C` [Compound 1.843] are “very good herbidical action” and “very good herbicidal action”.
In the same order, the values of `CCCOc1nn(C(=O)NS(=O)(=O)c2c(Cl)cc(C(F)(F)F)cc2I)c(=O)n1C` [Compound 1.844] are “very good herbidical action” and “very good herbicidal action”.
On the same counts, the results for `CC(C)Oc1nn(C(=O)NS(=O)(=O)c2c(Cl)cc(C(F)(F)F)cc2I)c(=O)n1C` [Compound 1.845] are “very good herbidical action” and “very good herbicidal action”.
Turning to `COc1nn(C(=O)NS(=O)(=O)c2c(Cl)cc(C(F)(F)F)cc2I)c(=O)n1C1CC1` [Compound 1.846], the “herbicidal action against weed plants (visual scoring of plant damage or emergence damage)” value in experiment [1] was “very good herbidical action”. Further, in experiment [2], the “herbicidal action against weed plants (effect scored visually)” value is recorded as “very good herbicidal action”.
On the same counts, the results for `CCOc1nn(C(=O)NS(=O)(=O)c2c(Cl)cc(C(F)(F)F)cc2I)c(=O)n1C1CC1` [Compound 1.847] are “very good herbidical action” and “very good herbicidal action”.
In the same order, the values of `CCCOc1nn(C(=O)NS(=O)(=O)c2c(Cl)cc(C(F)(F)F)cc2I)c(=O)n1C1CC1` [Compound 1.848] are “very good herbidical action” and “very good herbicidal action”.
As for `COc1nn(C(=O)NS(=O)(=O)c2c(Cl)ccc(Cl)c2I)c(=O)n1C` [Compound 1.849], in experiment [1], the “herbicidal action against weed plants (visual scoring of plant damage or emergence damage)” value was “very good herbidical action”. Further, the “herbicidal action against weed plants (effect scored visually)” value in experiment [2] is on record as “very good herbicidal action”.
On to `CCOc1nn(C(=O)NS(=O)(=O)c2c(Cl)ccc(Cl)c2I)c(=O)n1C` [Compound 1.850], for which the “herbicidal action against weed plants (visual scoring of plant damage or emergence damage)” value in experiment [1] was “very good herbidical action”. For the same compound, the “herbicidal action against weed plants (effect scored visually)” value in experiment [2] is “very good herbicidal action”.
On the same counts, the results for `CCCOc1nn(C(=O)NS(=O)(=O)c2c(Cl)ccc(Cl)c2I)c(=O)n1C` [Compound 1.851] are “very good herbidical action” and “very good herbicidal action”.
In the same order, the values of `CC(C)Oc1nn(C(=O)NS(=O)(=O)c2c(Cl)ccc(Cl)c2I)c(=O)n1C` [Compound 1.852] are “very good herbidical action” and “very good herbicidal action”.
In the same order, the values of `COc1nn(C(=O)NS(=O)(=O)c2c(Cl)ccc(Cl)c2I)c(=O)n1C1CC1` [Compound 1.853] are “very good herbidical action” and “very good herbicidal action”.
Regarding `CCOc1nn(C(=O)NS(=O)(=O)c2c(Cl)ccc(Cl)c2I)c(=O)n1C1CC1` [Compound 1.854], in experiment [1], the “herbicidal action against weed plants (visual scoring of plant damage or emergence damage)” value was “very good herbidical action”. Also, in experiment [2], the “herbicidal action against weed plants (effect scored visually)” value was “very good herbicidal action”.
On the same counts, the results for `CCOc1nn(C(=O)NS(=O)(=O)c2ccc(C)c(F)c2I)c(=O)n1C` [Compound 1.856] are “very good herbidical action” and “very good herbicidal action”.
Regarding `CCCOc1nn(C(=O)NS(=O)(=O)c2ccc(C)c(F)c2I)c(=O)n1C` [Compound 1.857], the “herbicidal action against weed plants (visual scoring of plant damage or emergence damage)” value in experiment [1] is “very good herbidical action”. For the same compound, the “herbicidal action against weed plants (effect scored visually)” value in experiment [2] is recorded as “very good herbicidal action”.
On the same counts, the results for `Cc1ccc(S(=O)(=O)NC(=O)n2nc(OC(C)C)n(C)c2=O)c(I)c1F` [Compound 1.858] are “very good herbidical action” and “very good herbicidal action”.
In the same order, the values of `COc1nn(C(=O)NS(=O)(=O)c2ccc(C)c(F)c2I)c(=O)n1C1CC1` [Compound 1.859] are “very good herbidical action” and “very good herbicidal action”.
